Values after ≈ are worked out from the molar mass of the structure shown.
What was measured:
Assay type in all cases: functional
[1] = tested on: Staphylococcus; assay: Antimicrobial activity against linezolid-resistant coagulase-negative Staphylococcus assessed as inhibition of microbial growth at =< 0.25 ug/ml by CLSI method
[2] = tested on: Staphylococcus aureus; assay: Ratio of Linezolid to compound activity for cfr-expressing methicillin-resistant Staphylococcus aureus
[3] = tested on: Staphylococcus; assay: Antimicrobial activity against oxacillin-susceptible coagulase-negative Staphylococcus aureus by CLSI method
[4] = tested on: Staphylococcus aureus; assay: Antimicrobial activity against oxacillin-resistant Staphylococcus aureus by CLSI method
[5] = tested on: Staphylococcus aureus; assay: Ratio of Linezolid MIC50 to compound MIC50 for Linezolid-susceptible Staphylococcus aureus
[6] = tested on: Staphylococcus aureus; assay: Antimicrobial activity against linezolid-susceptible Staphylococcus aureus assessed as inhibition of microbial growth at 0.5 ug/ml by CLSI method
[7] = tested on: Staphylococcus; assay: Antimicrobial activity against linezolid-susceptible coagulase-negative Staphylococcus assessed as inhibition of microbial growth at =< 0.25 ug/ml by CLSI method
[8] = tested on: Staphylococcus aureus; assay: Antimicrobial activity against oxacillin-susceptible Staphylococcus aureus by CLSI method
[9] = tested on: Staphylococcus aureus; assay: Antimicrobial activity against oxacillin-susceptible Staphylococcus aureus assessed as inhibition of microbial growth at 0.5 ug/ml by CLSI method
[10] = tested on: Staphylococcus; assay: Antimicrobial activity against linezolid-resistant coagulase-negative Staphylococcus assessed as inhibition of microbial growth at 2 ug/ml by CLSI method
[11] = tested on: Staphylococcus aureus; assay: Ratio of Linezolid MIC90 to compound MIC90 for Linezolid-susceptible Staphylococcus aureus
[12] = tested on: Staphylococcus; assay: Antimicrobial activity against oxacillin-resistant coagulase-negative Staphylococcus aureus by CLSI method
[13] = tested on: Staphylococcus; assay: Antimicrobial activity against teicoplanin and methicillin-resistant coagulase-negative Staphylococcus by CLSI method
[14] = tested on: Staphylococcus; assay: Antimicrobial activity against linezolid-susceptible coagulase-negative Staphylococcus assessed as inhibition of microbial growth at 0.5 ug/ml by CLSI method
[15] = tested on: Staphylococcus aureus; assay: Antimicrobial activity against oxacillin-susceptible coagulase-negative Staphylococcus aureus assessed as inhibition of microbial growth at =< 0.25 ug/ml by CLSI method
[16] = tested on: Staphylococcus; assay: Antimicrobial activity against linezolid-resistant coagulase-negative Staphylococcus assessed as inhibition of microbial growth at 4 ug/ml by CLSI method
[17] = tested on: Staphylococcus aureus; assay: Antimicrobial activity against linezolid-susceptible Staphylococcus aureus by CLSI method
[18] = tested on: Staphylococcus aureus; assay: Antimicrobial activity against linezolid-susceptible Staphylococcus aureus assessed as inhibition of microbial growth at =< 0.25 ug/ml by CLSI method
[19] = tested on: Staphylococcus aureus; assay: Antimicrobial activity against oxacillin-resistant Staphylococcus aureus assessed as inhibition of microbial growth at =< 0.25 ug/ml by CLSI method
[20] = tested on: Staphylococcus; assay: Antimicrobial activity against linezolid-susceptible coagulase-negative Staphylococcus by CLSI method
[21] = tested on: Staphylococcus aureus; assay: Antimicrobial activity against linezolid-resistant Staphylococcus aureus assessed as inhibition of microbial growth at 0.5 ug/ml by CLSI method
[22] = tested on: Staphylococcus; assay: Antimicrobial activity against linezolid-resistant coagulase-negative Staphylococcus assessed as inhibition of microbial growth at 0.5 ug/ml by CLSI method
[23] = tested on: Staphylococcus aureus; assay: Antimicrobial activity against oxacillin-resistant Staphylococcus aureus assessed as inhibition of microbial growth at 0.5 ug/ml by CLSI method
[24] = tested on: Staphylococcus; assay: Antimicrobial activity against linezolid-resistant coagulase-negative Staphylococcus assessed as inhibition of microbial growth at 1 ug/ml by CLSI method
[25] = tested on: Staphylococcus aureus; assay: Antimicrobial activity against methicillin-resistant Staphylococcus aureus by CLSI method
[26] = tested on: Staphylococcus; assay: Antimicrobial activity against linezolid-resistant coagulase-negative Staphylococcus by CLSI method
[27] = tested on: Staphylococcus aureus; assay: Antimicrobial activity against oxacillin-susceptible Staphylococcus aureus assessed as inhibition of microbial growth at =< 0.25 ug/ml by CLSI method
[28] = tested on: Staphylococcus; assay: Antimicrobial activity against Linezolid and methicillin-resistant coagulase-negative Staphylococcus by CLSI method
[29] = tested on: Staphylococcus aureus; assay: Antimicrobial activity against linezolid-resistant Staphylococcus aureus by CLSI method
[30] = tested on: Staphylococcus aureus; assay: Antimicrobial activity against oxacillin-susceptible Staphylococcus aureus assessed as percent susceptible strain by CLSI method
[31] = tested on: Staphylococcus aureus; assay: Antimicrobial activity against oxacillin-resistant Staphylococcus aureus assessed as percent susceptible strain by CLSI method
[32] = tested on: Staphylococcus; assay: Antimicrobial activity against linezolid-susceptible coagulase-negative Staphylococcus assessed as percent susceptible strain by CLSI method
[33] = tested on: Staphylococcus aureus; assay: Antimicrobial activity against linezolid-resistant Staphylococcus aureus assessed as percent susceptible strain by CLSI method
[34] = tested on: Staphylococcus; assay: Antimicrobial activity against linezolid-resistant coagulase-negative Staphylococcus assessed as percent susceptible strain by CLSI method
[35] = Antimicrobial activity against oxacillin-susceptible coagulase-negative Staphylococcus aureus assessed as percent susceptible strain by CLSI method
[36] = tested on: Staphylococcus aureus; assay: Antimicrobial activity against linezolid-susceptible Staphylococcus aureus assessed as percent susceptible strain by CLSI method

SMILES | MIC50 [3] [µg/mL] | MIC90 [3] [µg/mL] | MIC50 [4] [µg/mL] | MIC90 [4] [µg/mL] | MIC50 [8] [µg/mL] | MIC90 [8] [µg/mL] | MIC50 [12] [µg/mL] | MIC90 [12] [µg/mL] | MIC50 [17] [µg/mL] | MIC90 [17] [µg/mL] | MIC50 [20] [µg/mL] | MIC90 [20] [µg/mL] | MIC50 [26] [µg/mL] | MIC [28] [µg/mL] | MIC50 [29] [µg/mL] | other results
Cn1nnc(-c2ccc(-c3ccc(N4C[C@H](CO)OC4=O)cc3F)cn2)n1 [TEDIZOLID] | 0.25 (≈ 0.675 µM) | 0.25 (≈ 0.675 µM) | 0.25 (≈ 0.675 µM) | 0.5 (≈ 1.35 µM) | 0.25 (≈ 0.675 µM) | 0.25 (≈ 0.675 µM) | 0.125 (≈ 0.338 µM) | 0.25 (≈ 0.675 µM) | 0.25 (≈ 0.675 µM) | 0.5 (≈ 1.35 µM) | 0.25 (≈ 0.675 µM) | 0.25 (≈ 0.675 µM) | 2 (≈ 5.4 µM) | 0.25 (≈ 0.675 µM) | 0.5 (≈ 1.35 µM) | inhibition (INH) [1]: 20%; Ratio [2]: 32; Ratio [5]: 8; inhibition at 0.5 µg/mL [6]: 100%; inhibition (INH) [7]: 99.5%; inhibition at 0.5 µg/mL [9]: 100%; inhibition at 2 µg/mL [10]: 80%; Ratio [11]: 4; MIC [13]: 0.25 µg/mL (≈ 0.675 µM); inhibition at 0.5 µg/mL [14]: 100%; inhibition (INH) [15]: 100%; inhibition at 4 µg/mL [16]: 100%; inhibition (INH) [18]: 83.1%; inhibition (INH) [19]: 70%; inhibition at 0.5 µg/mL [21]: 100%; inhibition at 0.5 µg/mL [22]: 20%; inhibition at 0.5 µg/mL [23]: 100%; inhibition at 1 µg/mL [24]: 20%; MIC [25]: 0.5 µg/mL (≈ 1.35 µM); inhibition (INH) [27]: 99%
CN[C@H](CC(C)C)C(=O)N[C@H]1C(=O)N[C@@H](CC(N)=O)C(=O)N[C@H]2C(=O)N[C@H]3C(=O)N[C@H](C(=O)N[C@H](C(=O)O)c4cc(O)cc(O)c4-c4cc3ccc4O)[C@H](O)c3ccc(c(Cl)c3)Oc3cc2cc(c3O[C@@H]2O[C@H](CO)[C@@H](O)[C@H](O)[C@H]2O[C@H]2C[C@](C)(N)[C@H](O)[C@H](C)O2)Oc2ccc(cc2Cl)[C@H]1O [VANCOMYCIN] | 2 (≈ 1.38 µM) | 2 (≈ 1.38 µM) | 1 (≈ 0.69 µM) | 2 (≈ 1.38 µM) | 1 (≈ 0.69 µM) | 1 (≈ 0.69 µM) | 2 (≈ 1.38 µM) | 2 (≈ 1.38 µM) | 1 (≈ 0.69 µM) | 1 (≈ 0.69 µM) | 2 (≈ 1.38 µM) | 2 (≈ 1.38 µM) | 2 (≈ 1.38 µM) | 2 (≈ 1.38 µM) | 2 (≈ 1.38 µM) | Activity [30]: 100%; Activity [31]: 99.2%; Activity [32]: 100%; Activity [33]: 100%; Activity [34]: 100%; Activity [35]: 100%; Activity [36]: 99.6%

Reference: ChEMBL document CHEMBL1255438, “Comparative activities of TR-700 (torezolid) against staphylococcal blood isolates collected in Spain” (2010)
